{
  "source": "patent US5478807A",
  "about": "“Use of relaxin in the treatment of bradycardia” (Genentech, Inc., priority 1992, dated 1995)",
  "key": {"pubic symphysis": {"tested_on": "pubic symphysis", "experiment": "Mouse pubic symphysis assay", "conditions": "in vivo", "method": "The concentration of relaxin was determined by amino acid analysis."}, "[1]": {"tested_on": "rat isolated atrial preparations", "conditions": "cited from earlier work"}, "[2]": {"biological_target": "T1, relaxin receptors in the atria of rat heart (Rattus norvegicus, UniProt Q6R6I6)", "T1 construct": "The frozen tissues were sectioned to 16 μm thickness; from tissue; host or cells: rat heart (right and left atrium) frozen sections, from normal and from hormone-treated gonadectomized rats", "T1 sequence (Q6R6I6 1-758)": "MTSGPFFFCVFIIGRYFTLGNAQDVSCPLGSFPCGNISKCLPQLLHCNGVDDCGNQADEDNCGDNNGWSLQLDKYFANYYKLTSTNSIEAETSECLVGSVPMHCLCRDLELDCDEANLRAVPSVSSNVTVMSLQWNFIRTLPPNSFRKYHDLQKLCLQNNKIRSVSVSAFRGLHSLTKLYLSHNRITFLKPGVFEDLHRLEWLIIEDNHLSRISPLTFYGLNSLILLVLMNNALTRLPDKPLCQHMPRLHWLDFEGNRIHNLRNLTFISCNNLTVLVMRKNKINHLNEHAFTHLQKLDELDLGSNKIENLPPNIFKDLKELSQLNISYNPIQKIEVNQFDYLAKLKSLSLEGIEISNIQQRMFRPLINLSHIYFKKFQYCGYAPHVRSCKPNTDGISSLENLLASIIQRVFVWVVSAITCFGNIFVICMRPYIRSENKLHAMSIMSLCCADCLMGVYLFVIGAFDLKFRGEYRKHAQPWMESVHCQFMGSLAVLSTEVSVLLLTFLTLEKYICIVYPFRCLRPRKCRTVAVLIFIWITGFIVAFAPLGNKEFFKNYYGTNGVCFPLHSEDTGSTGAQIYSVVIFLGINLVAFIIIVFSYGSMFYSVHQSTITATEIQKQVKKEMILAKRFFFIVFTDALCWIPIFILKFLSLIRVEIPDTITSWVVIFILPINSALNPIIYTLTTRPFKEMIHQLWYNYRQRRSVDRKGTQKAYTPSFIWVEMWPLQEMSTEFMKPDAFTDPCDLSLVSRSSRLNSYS", "experiment": "Displacement of 32P-relaxin binding in rat heart tissue sections (autoradiography)", "conditions": "for Kd: read-out: dissociation constant (Kd)", "method": "(§1) Ten-week-old normal male and cyclic female Sprague-Dawley rats (Charles River Breeding Laboratories, Wilmonton, Mass.) were used for binding specificity and binding displacement experiments. These were given food and water ad libidium and housed in a room with the ambient temperature controlled around 21° C.\nFor hormonal control experiments, 10-11-week-old female rats were ovariectomized for two weeks and then injected s.c. with 10 μg estradiol cyclopentyl propionate in a […] vehicle or with vehicle alone. Likewise, 10-11-week-old male rats were castrated for 2 weeks and were injected with either 10 μg estradiol cyclopentyl propionate, 10 μg testosterone, or vehicle alone. The rats were sacrificed 7 days later by asphyxiation with CO2. The relevant tissues were removed rapidly and frozen in powdered dry ice immediately.\n(§2) The frozen tissues were sectioned to 16 μm thickness using a Reichert-Jung Model 2800 Frigocut cryostat (Cambridge Instruments). Tissue sections were fixed onto gelatin/chromium potassium sulfate treated microscope slides by warming, and immediately refrozen and stored at -80° C. overnight or longer.\nFor binding of ^32 P-relaxin to the tissue sections, frozen slides were prewashed with binding buffer (Hank's balanced salt solution supplemented with 20 mMHEPES, pH 7.2, 1 mg/ml BSA, 0.1 mM PMSF, and 1 μg/ml leupeptin) at 4° C. for 1.5-2 hours. The tissue sections were then covered with 600-700 μl of 100 pM ^32 P-relaxin with or without excess unlabeled relaxin and other competing agents as specificity control, and incubated at 4° C. for one hour. The slides were washed 3 times for 15-30 minutes each, with binding buffer. The slides were air-dried and mounted on filter paper and exposed to Hyperfilm-βMAX (Amersham) for 3-5 days.\nRegions of binding were determined by overlaying the autoradiographs with adjacent sections counterstained with hematoxylin-eosin. For relaxin binding displacement experiments, consecutive 16 μm sections were incubated with 100 pM of ^32 P-relaxin in the absence and presence of increasing concentrations (serial three-fold increases) of unlabeled relaxin in the range of 0.1-100 nM. Pseudocolor reconstruction and quantitative analysis of ^32 P-relaxin binding autoradiographs were performed with a RAS-3000 image analysis system (Amersham). The OD or radioactivities (cpm) of bound ^32 P relaxin (maximum binding in a particular region) were quantified by computerized densitometry based on parallel sets of ^32 P-relaxin standards (ranging from 50 to 2000 cpm) blotted onto nitrocellulose membranes (Trans-Blot SF, Bio-Rad, Richmond, Calif.). The binding inhibition data were fit to a four parameter equation to obtain the ED50 (the concentration of unlabeled relaxin yielding 50% displacement of the binding of ^32 p-relaxin). The dissociation constant (Kd) for relaxin was calculated by the method of Cheng and Prusoff [Biochem. Pharmacol. 22, 3099-3108 (1973)]."}, "[3]": {"biological_target": "T2, relaxin binding sites in the rat uterus (Rattus norvegicus, UniProt Q6R6I6)", "T2 construct": "The frozen tissues were sectioned to 16 μm thickness; from tissue; host or cells: rat uterus (uterine horn, cervix) frozen sections", "T2 sequence (Q6R6I6 1-758)": "T1 sequence (Q6R6I6 1-758)", "experiment": "Displacement of 32P-relaxin binding in rat uterus tissue sections (autoradiography)", "method": "as §1\nas §2, with “longer. […]” for “longer.”\nRegions of binding were determined by overlaying the autoradiographs with adjacent sections counterstained with hematoxylin-eosin. […] Pseudocolor reconstruction and quantitative analysis of ^32 P-relaxin binding autoradiographs were performed with a RAS-3000 image analysis system (Amersham). The OD or radioactivities (cpm) of bound ^32 P relaxin (maximum binding in a particular region) were quantified by computerized densitometry based on parallel sets of ^32 P-relaxin standards (ranging from 50 to 2000 cpm) blotted onto nitrocellulose membranes (Trans-Blot SF, Bio-Rad, Richmond, Calif.). […] The dissociation constant (Kd) for relaxin was calculated by the method of Cheng and Prusoff [Biochem. Pharmacol. 22, 3099-3108 (1973)]."}},
  "note": "Like-named read-outs stand apart in the source and are kept apart here.",
  "data": [
    {"substance": "relaxin", "values": [
      {"measurement": "biological activity", "setting": "pubic symphysis", "result": "biologically active"},
      {"measurement": "chronotropic and inotropic effects", "setting": "[1]", "result": "positive chronotropic and inotropic effects"},
      {"measurement": "displacement of the binding of 100 pM 32P-relaxin", "setting": "[2]; 100 nM competitor, normal female rat heart", "result": "displacement of the binding of 100 pM ^32 P-relaxin by 100 nM unlabeled relaxin"},
      {"measurement": "displacement of the binding of 32P-relaxin", "setting": "[2]; 100 nM unlabeled relaxin, atria of normal male rat heart", "result": "fully displaced"},
      {"measurement": "Kd", "setting": "[2]; atria of estrogen-treated ovariectomized rat heart", "result": "0.86 ± 0.35", "unit": "nM"},
      {"measurement": "Kd", "setting": "[2]; atria of normal female rat heart, displacement of 32P-H2 relaxin, mean±S.E. of two regions", "result": "1.37 ± 0.13", "unit": "nM"},
      {"measurement": "extent of displacement of 32P-relaxin binding", "setting": "[2]; heart, increasing concentrations of unlabeled relaxin", "result": "total displacement"},
      {"measurement": "Kd", "setting": "[3]; rat uterus (uterine horn, cervix), displacement of 100 pM 32P-relaxin, mean±S.E. of two regions, read-out: dissociation constant (Kd)", "result": "1.3 ± 0.22", "unit": "nM"},
      {"measurement": "extent of displacement of 32P-relaxin binding", "setting": "[3]; uterus, increasing concentrations of unlabeled relaxin", "result": "partial displacement"}
    ]}
  ]
}
